Assay [1] deals with human immunoproteasome (LMP7) (Homo sapiens (Human), UniProt P28062). Nature of the assay: Determination of LMP7 activity (fluorescence intensity assay, Suc-LLVY-AMC). To be noted: for Selectivity LMP7 vs Beta5: LMP7 versus Beta5; for IC50: purified human immunoproteasome 0.25 nM, Suc-LLVY-AMC 40 μM. In kind it is biochemical. Summed up: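 0.25 nM purified human immunoproteasome preincubated 20 min at 25 °C with serially diluted compounds in 50 mM Tris pH 7.4, 0.03% SDS, 1 mM EDTA, 1% DMSO. Reaction started with 40 μM Suc-LLVY-AMC, run 60 min at 37 °C. Fluorescence read at ex 350/em 450 nm.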

The target of assay [2] is human constitutive proteasome (Beta5) (Homo sapiens (Human), UniProt P28074). Description: Determination of Beta5 activity (fluorescence intensity assay, Suc-LLVY-AMC). Format: biochemical. As to conditions: purified human constitutive proteasome 1.25 nM, Suc-LLVY-AMC 40 μM. An outline of the steps: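 Purified constitutive proteasome (1.25 nM) was preincubated with compounds 20 min at 25 °C in 50 mM Tris pH 7.4, 0.03% SDS, 1 mM EDTA, 1% DMSO. Suc-LLVY-AMC (40 μM) was then added for 60 min at 37 °C. AMC fluorescence was read at ex 350/em 450 nm.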

Assay [3] has as its target LMP7 subunit of the immunoproteasome (Homo sapiens (Human), UniProt P28062). To be noted: Singh et al., Br. J. Hematology 152(2): 155-163; cited from earlier work.

Consider 22 molecules from patent US10294246B2, “Substituted boronic acids and boronate esters as immunoproteasome inhibitors” (MERCK PATENT GMBH, priority 2014, dated 2019).

By IC50 is commonly meant the concentration that gives 50% inhibition. Read a high IC50 as weaker potency in that assay.

With `COc1ccc(CC(=O)N[C@@H](C[C@H]2COc3ccccc32)B(O)O)cc1` [Compound No. 115, [(1R)-2-[(3R)-2,3-dihydrobenzofuran-3-yl]-1-[[2-(4-methoxyphenyl)-acetyl]amino]ethyl]boronic acid], in assay [1], the “Selectivity LMP7 vs Beta5” value is listed as “+++++ (Selectivity ≥ 100)” and the IC50 was less than 50 nM. Also, in assay [2], the IC50 is more than 5000 nM.
On to `N#Cc1ccccc1CC(=O)N[C@@H](Cc1coc2c(Cl)cccc12)B(O)O` [Compound No. 116, [(1R)-2-(7-chlorobenzofuran-3-yl)-1-[[2-(2-cyanophenyl)acetyl]amino]-ethyl]boronic acid], for which the “Selectivity LMP7 vs Beta5” value in assay [1] was “+++++ (Selectivity ≥ 100)”. Besides, the results for the IC50 in assay [1] and in assay [2] were less than 50 nM and 500 to 5000 nM, respectively.
On the same counts, the results for `COc1ccc(CC(=O)N[C@H](C[C@@H]2COc3ccccc32)B(O)O)cc1` [Compound No. 117, [(1S)-2-[(3S)-2,3-dihydrobenzofuran-3-yl]-1-[[2-(4-methoxyphenyl)-acetyl]amino]ethyl]boronic acid] are “+++++ (Selectivity ≥ 100)”, 50 to 500 nM and more than 5000 nM.
The like results for `COc1ccc(CC(=O)N[C@H](C[C@H]2COc3ccccc32)B(O)O)cc1` [Compound No. 118, [(1S)-2-[(3R)-2,3-dihydrobenzofuran-3-yl]-1-[[2-(4-methoxyphenyl)-acetyl]amino]ethyl]boronic acid] were, in that order, “+++++ (Selectivity ≥ 100)”, 50 to 500 nM and more than 5000 nM.
`O=C(Cc1ncccc1C(=O)N1CCOCC1)N[C@@H](Cc1coc2ccccc12)B(O)O` [Compound No. 119, [(1R)-2-(benzofuran-3-yl)-1-[[2-[3-(morpholine-4-carbonyl)-2-pyridyl]acetyl]amino]ethyl]boronic acid]: in assay [1], the “Selectivity LMP7 vs Beta5” value was “+++++ (Selectivity ≥ 100)” and the half-maximal inhibitory concentration (IC50) is less than 50 nM. Moreover, in assay [2], the IC50 was 500 to 5000 nM.
The like results for `COc1ccc(CC(=O)N[C@@H](C[C@@H]2COc3c(OC)cccc32)B(O)O)cc1` [Compound No. 120, [(1R)-2-[(3S)-7-methoxy-2,3-dihydrobenzofuran-3-yl]-1-[[2-(4-methoxyphenyl)acetyl]amino]ethyl]boronic acid] were, in that order, “+++++ (Selectivity ≥ 100)”, less than 50 nM and 500 to 5000 nM.
On to `O=C(Cc1ccccc1)NC(Cc1coc2c(F)cccc12)B(O)O` (stereo not shown) [Compound No. 121, [2-(7-fluorobenzofuran-3-yl)-1-[(2-phenylacetyl)amino]ethyl]boronic acid], for which, in assay [1], the “Selectivity LMP7 vs Beta5” value is recorded as “+++++ (Selectivity ≥ 100)” and the IC50 is less than 50 nM. This molecule also yielded an IC50 in assay [2] of 500 to 5000 nM.
The like results for `N#Cc1cccc(CC(=O)N[C@@H](Cc2coc3ccccc23)B(O)O)c1` [Compound No. 123, [(1R)-2-(benzofuran-3-yl)-1-[[2-(3-cyanophenyl)acetyl]amino]ethyl]-boronic acid] were, in that order, “+++++ (Selectivity ≥ 100)”, less than 50 nM and 500 to 5000 nM.
On the same counts, the results for `Cc1cccc2c1OC[C@H]2C[C@H](NC(=O)Cc1ccccc1)B(O)O` [Compound No. 124, [(1R)-2-[(3S)-7-methyl-2,3-dihydrobenzofuran-3-yl]-1-[(2-phenylacetyl)amino]ethyl]boronic acid] are “+++++ (Selectivity ≥ 100)”, less than 50 nM and more than 5000 nM.
`O=C(Cc1ccccc1)N[C@@H](Cc1coc2c(F)cccc12)B(O)O` [Compound No. 125, [(1R)-2-(7-fluorobenzofuran-3-yl)-1-[(2-phenylacetyl)amino]ethyl]-boronic acid]: in assay [1], the “Selectivity LMP7 vs Beta5” value is “+++++ (Selectivity ≥ 100)” and the half-inhibitory concentration (IC50) is less than 50 nM. In assay [2], this molecule yielded a half-inhibitory concentration (IC50) of 50 to 500 nM.
For the molecule `Cc1c(Cl)ccc2c(C[C@H](NC(=O)Cc3ccccc3)B(O)O)coc12` [Compound No. 126, [(1R)-2-(6-chloro-7-methyl-benzofuran-3-yl)-1-[(2-phenylacetyl)-amino]ethyl]boronic acid], in assay [1], the “Selectivity LMP7 vs Beta5” value is recorded as “+++++ (Selectivity ≥ 100)” and the IC50 was less than 50 nM. In assay [2], this molecule yielded an IC50 of 500 to 5000 nM.
`Cc1cccc2c1OC[C@@H]2C[C@H](NC(=O)Cc1ccccc1)B(O)O` [Compound No. 127, [(1R)-2-[(3R)-7-methyl-2,3-dihydrobenzofuran-3-yl]-1-[(2-phenylacetyl)amino]ethyl]boronic acid]: in assay [1], the “Selectivity LMP7 vs Beta5” value is listed as “++ (10 ≤ Selectivity < 50)” and the concentration for half-maximal inhibition (IC50) was in the range of 500 to 5000 nM. The concentration for half-maximal inhibition (IC50) in assay [2] is more than 5000 nM.
With `Cc1ccc(C)c2c(C[C@H](NC(=O)Cc3ccccc3)B(O)O)coc12` [Compound No. 128, [(1R)-2-(4,7-dimethylbenzofuran-3-yl)-1-[(2-phenylacetyl)-amino]ethyl]boronic acid], in assay [1], the “Selectivity LMP7 vs Beta5” value is on record as “+++++ (Selectivity ≥ 100)” and the IC50 is less than 50 nM. Further, the 50% inhibitory concentration (IC50) in assay [2] was more than 5000 nM.
Regarding `COc1ccc(CC(=O)N[C@@H](Cc2coc3c(C)ccc(C)c23)B(O)O)cc1` [Compound No. 129, [(1R)-2-(4,7-dimethylbenzofuran-3-yl)-1-[[2-(4-methoxyphenyl)-acetyl]amino]ethyl]boronic acid], in assay [1], the “Selectivity LMP7 vs Beta5” value is reported as “+++++ (Selectivity ≥ 100)”. In addition, the IC50 in assay [1] was less than 50 nM; in assay [2], 500 to 5000 nM.
On the same counts, the results for `Cc1cccc2c1OC[C@H]2C[C@H](NC(=O)Cc1ccccc1C#N)B(O)O` [Compound No. 130, [(1R)-1-[[2-(2-cyanophenyl)acetyl]amino]-2-[(3S)-7-methyl-2,3-dihydrobenzofuran-3-yl]ethyl]boronic acid] are “+++++ (Selectivity ≥ 100)”, less than 50 nM and more than 5000 nM.
The like results for `CCOc1ccc(CC(=O)N[C@@H](C[C@@H]2COc3ccccc32)B(O)O)nc1` [Compound No. 131, [(1R)-2-[(3S)-2,3-dihydrobenzofuran-3-yl]-1-[[2-(5-ethoxy-2-pyridyl)acetyl]amino]ethyl]boronic acid] were, in that order, “+++++ (Selectivity ≥ 100)”, less than 50 nM and 500 to 5000 nM.
The like results for `O=C(Cc1ccccc1)N[C@@H](C[C@@H]1COc2c(Cl)cccc21)B(O)O` [Compound No. 132, [(1R)-2-[(3S)-7-chloro-2,3-dihydrobenzofuran-3-yl]-1-[(2-phenylacetyl)amino]ethyl]boronic acid] were, in that order, “+++++ (Selectivity ≥ 100)”, less than 50 nM and 500 to 5000 nM.
In the case of `O=C(Cc1ccccc1)N[C@@H](C[C@H]1COc2c(Cl)cccc21)B(O)O` [Compound No. 133, [(1R)-2-[(3R)-7-chloro-2,3-dihydrobenzofuran-3-yl]-1-[(2-phenylacetyl)amino]ethyl]boronic acid], in assay [1], the “Selectivity LMP7 vs Beta5” value is listed as “++ (10 ≤ Selectivity < 50)” and the 50% inhibitory concentration (IC50) lay in the range of 500 to 5000 nM. The molecule further showed a concentration for half-maximal inhibition (IC50) in assay [2] of more than 5000 nM.
On the same counts, the results for `N#Cc1ccccc1CC(=O)N[C@@H](C[C@@H]1COc2c(Cl)cccc21)B(O)O` [Compound No. 134, [(1R)-2-[(3S)-7-chloro-2,3-dihydrobenzofuran-3-yl]-1-[[2-(2-cyanophenyl)acetyl]amino]ethyl]boronic acid] are “+++++ (Selectivity ≥ 100)”, less than 50 nM and 500 to 5000 nM.
The like results for `N#Cc1ccccc1CC(=O)N[C@@H](C[C@H]1COc2c(Cl)cccc21)B(O)O` [Compound No. 135, [(1R)-2-[(3R)-7-chloro-2,3-dihydrobenzofuran-3-yl]-1-[[2-(2-cyanophenyl)acetyl]amino]ethyl]boronic acid] were, in that order, “+++++ (Selectivity ≥ 100)”, 50 to 500 nM and more than 5000 nM.
On the same counts, the results for `O=C(CCOc1ccccc1)N[C@@H](C[C@@H]1COc2ccccc21)B(O)O` [Compound No. 136, [(1R)-2-[(3S)-2,3-dihydrobenzofuran-3-yl]-1-(3-phenoxypropanoylamino)ethyl]boronic acid] are “+++++ (Selectivity ≥ 100)”, less than 50 nM and 50 to 500 nM.
In the case of `CC1=C(C(=O)N[C@H](C)C(=O)N[C@@H](Cc2c[nH]c3ccccc23)C(=O)N[C@@H](Cc2ccccc2)C(=O)[C@@]2(C)CO2)Cc2ccccc21` [PR-924], the “selectivity for the LMP7 subunit of the immunoproteasome” value in assay [3] is given as 100 fold.
